Assay: Asthma Quality of Life Questionnaire with Standardized Activities (AQLQ(S))
Format: in vivo, human
From the text: The AQLQ(S) is a self-administered patient reported outcome to measure the functional impairments that are most troublesome to adolescents and adults ≥12 years of age as a result of their asthma.
Asthma Quality of Life Questionnaire with Standardized Activities (AQLQ(S)) self-administered (≥12 years)
The AQLQ(S) was designed as a self-administered patient reported outcome to measure the functional impairments that are most troublesome to adolescents and adults ≥12 years of age as a result of their asthma. The instrument is comprised of 32 items, each rated on a 7-point Likert scales from 1 to 7. The AQLQ(S) has 4 domains. The domains and the number of items in each domain are as follows: • Symptoms (12 items) • Activity limitation (11 items) • Emotional function (5 items) • Environmental stimuli (4 items)
A global score is calculated ranging from 1 to 7 and a score by domain. Higher scores indicate better quality of life. […] Patients were to complete the questionnaire in an electronic diary during on-site visits.
Secondary endpoints included pre-bronchodilator FEV1 change from baseline at EOT, ACQ-5 score change from baseline, and AQLQ score change from baseline. Other secondary and exploratory endpoints are described in Table 2.

[1] = 400 mg TID, observed/LOCF imputed, n=53, mITT

CC(C)(C=C(C#N)C(=O)N1CCC[C@@H](n2nc(-c3ccc(Oc4ccccc4)cc3F)c3c(N)ncnc32)C1)N1CCN(C2COC2)CC1 (mixture of isomers) [rilzabrutinib, (R)-2-[3-[4-amino-3-(2-fluoro-4-phenoxy-phenyl)pyrazolo[3,4-d]pyrimidin-1-yl]piperidine-1-carbonyl]-4-methyl-4-[4-(oxetan-3-yl)piperazin-1-yl]pent-2-enenitrile]
AQLQ global score change from baseline at Week 12, LS Mean Diff vs. placebo (400 mg TID, mITT, all others than low EOS and low FeNO): 0.35
AQLQ global score change from baseline at Week 12, LS Mean Diff vs. placebo (400 mg TID, mITT, atopic medical conditions: no): 0.37
AQLQ global score change from baseline at Week 12, LS Mean Diff vs. placebo (400 mg TID, mITT, atopic medical conditions: yes): 0.13
AQLQ global score change from baseline at Week 12, LS Mean Diff vs. placebo (400 mg TID, mITT, background ICS dose high): 0.26
AQLQ global score change from baseline at Week 12, LS Mean Diff vs. placebo (400 mg TID, mITT, background ICS dose medium): 0.31
AQLQ global score change from baseline at Week 12, LS Mean Diff vs. placebo (400 mg TID, mITT, baseline ACQ-5 score >2): 0.38
AQLQ global score change from baseline at Week 12, LS Mean Diff vs. placebo (400 mg TID, mITT, baseline ACQ-5 score ≤2): 0.29
AQLQ global score change from baseline at Week 12, LS Mean Diff vs. placebo (400 mg TID, mITT, baseline BMI <25 kg/m^2): 0.56
AQLQ global score change from baseline at Week 12, LS Mean Diff vs. placebo (400 mg TID, mITT, baseline BMI ≥25-<30 kg/m^2): 0.47
AQLQ global score change from baseline at Week 12, LS Mean Diff vs. placebo (400 mg TID, mITT, baseline BMI ≥30 kg/m^2): −0.01
AQLQ global score change from baseline at Week 12, LS Mean Diff vs. placebo (400 mg TID, mITT, baseline FEV1 reversibility <12%): 0.12
AQLQ global score change from baseline at Week 12, LS Mean Diff vs. placebo (400 mg TID, mITT, baseline FEV1 reversibility ≥12%): 0.32
AQLQ global score change from baseline at Week 12, LS Mean Diff vs. placebo (400 mg TID, mITT, baseline FeNO <25 ppb): 0.15
AQLQ global score change from baseline at Week 12, LS Mean Diff vs. placebo (400 mg TID, mITT, baseline FeNO <35 ppb): 0.18
AQLQ global score change from baseline at Week 12, LS Mean Diff vs. placebo (400 mg TID, mITT, baseline FeNO ≥25 ppb): 0.44
AQLQ global score change from baseline at Week 12, LS Mean Diff vs. placebo (400 mg TID, mITT, baseline FeNO ≥35 ppb): 0.45
AQLQ global score change from baseline at Week 12, LS Mean Diff vs. placebo (400 mg TID, mITT, baseline IgA <median 2190 mg/L): 0.50
AQLQ global score change from baseline at Week 12, LS Mean Diff vs. placebo (400 mg TID, mITT, baseline IgA ≥median 2190 mg/L): 0.08
AQLQ global score change from baseline at Week 12, LS Mean Diff vs. placebo (400 mg TID, mITT, baseline IgE <100 IU/mL): 0.46
AQLQ global score change from baseline at Week 12, LS Mean Diff vs. placebo (400 mg TID, mITT, baseline IgE <median 121.85 IU/mL): 0.60
AQLQ global score change from baseline at Week 12, LS Mean Diff vs. placebo (400 mg TID, mITT, baseline IgE ≥100 IU/mL): 0.16
AQLQ global score change from baseline at Week 12, LS Mean Diff vs. placebo (400 mg TID, mITT, baseline IgE ≥median 121.85 IU/mL): −0.02
AQLQ global score change from baseline at Week 12, LS Mean Diff vs. placebo (400 mg TID, mITT, baseline blood eosinophil level 1 <0.15 10^9/L): 0.07
AQLQ global score change from baseline at Week 12, LS Mean Diff vs. placebo (400 mg TID, mITT, baseline blood eosinophil level 1 ≥0.15-<0.3 10^9/L): 0.32
AQLQ global score change from baseline at Week 12, LS Mean Diff vs. placebo (400 mg TID, mITT, baseline blood eosinophil level 1 ≥0.3 10^9/L): 0.70
AQLQ global score change from baseline at Week 12, LS Mean Diff vs. placebo (400 mg TID, mITT, baseline blood eosinophil level 2 <0.3 10^9/L): 0.17
AQLQ global score change from baseline at Week 12, LS Mean Diff vs. placebo (400 mg TID, mITT, baseline blood eosinophil level 2 ≥0.3 10^9/L): 0.70
AQLQ global score change from baseline at Week 12, LS Mean Diff vs. placebo (400 mg TID, mITT, baseline percent predicted FEV1 <77%): 0.42
AQLQ global score change from baseline at Week 12, LS Mean Diff vs. placebo (400 mg TID, mITT, baseline percent predicted FEV1 <80%): 0.35
AQLQ global score change from baseline at Week 12, LS Mean Diff vs. placebo (400 mg TID, mITT, baseline percent predicted FEV1 ≥77%): 0.16
AQLQ global score change from baseline at Week 12, LS Mean Diff vs. placebo (400 mg TID, mITT, baseline percent predicted FEV1 ≥80%): 0.27
AQLQ global score change from baseline at Week 12, LS Mean Diff vs. placebo (400 mg TID, mITT, baseline pre-bronchodilator FEV1 <2.1955 L): 0.28
AQLQ global score change from baseline at Week 12, LS Mean Diff vs. placebo (400 mg TID, mITT, baseline pre-bronchodilator FEV1 ≥2.1955 L): 0.27
AQLQ global score change from baseline at Week 12, LS Mean Diff vs. placebo (400 mg TID, mITT, baseline weight <60 kg): −0.08
AQLQ global score change from baseline at Week 12, LS Mean Diff vs. placebo (400 mg TID, mITT, baseline weight ≥60-<90 kg): 0.41
AQLQ global score change from baseline at Week 12, LS Mean Diff vs. placebo (400 mg TID, mITT, baseline weight ≥90 kg): 0.17
AQLQ global score change from baseline at Week 12, LS Mean Diff vs. placebo (400 mg TID, mITT, female): 0.32
AQLQ global score change from baseline at Week 12, LS Mean Diff vs. placebo (400 mg TID, mITT, former smokers): −0.02
AQLQ global score change from baseline at Week 12, LS Mean Diff vs. placebo (400 mg TID, mITT, low EOS (<0.15) and low FeNO (<25)): 0.10
AQLQ global score change from baseline at Week 12, LS Mean Diff vs. placebo (400 mg TID, mITT, male): 0.15
AQLQ global score change from baseline at Week 12, LS Mean Diff vs. placebo (400 mg TID, mITT, never smokers): 0.34
AQLQ global score non-responders at Week 12, number [1]: 24
AQLQ global score non-responders at Week 12, percentage [1]: (45.3) (22/2)
participants with AQLQ improvement of at least 0.5 from baseline at Week 12 (400 mg TID, placebo 40.3%, p=0.0456): 54.7%
AQLQ(S) Activity limitation score, Mean (Week 4, 400 mg BID, mITT): 5.48
AQLQ(S) Activity limitation score, Median (Week 4, 400 mg BID, mITT): 5.55
AQLQ(S) Activity limitation score, change from baseline, LS Mean (Week 4, 400 mg BID, mITT): 0.72
AQLQ(S) Activity limitation score, change from baseline, Mean (Week 4, 400 mg BID, mITT): 0.73
AQLQ(S) Activity limitation score, change from baseline, Median (Week 4, 400 mg BID, mITT): 0.55
AQLQ(S) Emotional function score, Mean (Week 4, 400 mg BID, mITT): 5.85
AQLQ(S) Emotional function score, Median (Week 4, 400 mg BID, mITT): 6.40
AQLQ(S) Emotional function score, change from baseline, LS Mean (Week 4, 400 mg BID, mITT): 0.77
AQLQ(S) Emotional function score, change from baseline, Mean (Week 4, 400 mg BID, mITT): 0.61
AQLQ(S) Emotional function score, change from baseline, Median (Week 4, 400 mg BID, mITT): 0.40
AQLQ(S) Environmental stimuli score, Mean (Week 4, 400 mg BID, mITT): 5.13
AQLQ(S) Environmental stimuli score, change from baseline, LS Mean (Week 4, 400 mg BID, mITT): 0.60
AQLQ(S) Environmental stimuli score, change from baseline, Mean (Week 4, 400 mg BID, mITT): 0.67
AQLQ(S) Environmental stimuli score, change from baseline, Median (Week 4, 400 mg BID, mITT): 0.50
AQLQ(S) Global score, Mean (Week 4, 400 mg BID, mITT): 5.63
AQLQ(S) Global score, Median (Week 4, 400 mg BID, mITT): 5.69
AQLQ(S) Global score, change from baseline, LS Mean (Week 4, 400 mg BID, mITT): 0.80
AQLQ(S) Global score, change from baseline, Mean (Week 4, 400 mg BID, mITT): 0.73
AQLQ(S) Global score, change from baseline, Median (Week 4, 400 mg BID, mITT): 0.69
AQLQ(S) Symptoms score, Mean (Week 4, 400 mg BID, mITT): 5.83
AQLQ(S) Symptoms score, Median (Week 4, 400 mg BID, mITT): 6.00
AQLQ(S) Symptoms score, change from baseline, LS Mean (Week 4, 400 mg BID, mITT): 0.92
AQLQ(S) Symptoms score, change from baseline, Mean (Week 4, 400 mg BID, mITT): 0.80
AQLQ(S) Symptoms score, change from baseline, Median (Week 4, 400 mg BID, mITT): 0.75
AQLQ(S) Environmental stimuli score, change from baseline, LS Mean Diff vs. placebo (Week 4, 400 mg BID, mITT, 95% CI 0.02, 1.49): 0.76
AQLQ(S) Activity limitation score, change from baseline, LS Mean Diff vs. placebo (Week 4, 400 mg BID, mITT, 95% CI 0.26, 1.24): 0.75
AQLQ(S) Emotional function score, change from baseline, LS Mean Diff vs. placebo (Week 4, 400 mg BID, mITT, 95% CI 0.30, 1.74): 1.02
AQLQ(S) Global score, change from baseline, LS Mean Diff vs. placebo (Week 4, 400 mg BID, mITT, 95% CI 0.34, 1.34): 0.84
AQLQ(S) Symptoms score, change from baseline, LS Mean Diff vs. placebo (Week 4, 400 mg BID, mITT, 95% CI 0.41, 1.32): 0.86

— US20260345619A1 (Principia Biopharma Inc., priority 2023, published 2026)
